Common to all, as to format: in vivo
Data set [1] deals with oilseed rape (GA-tolerant). In words: Greenhouse trial, crop plant compatibility in oilseed rape (GA-tolerant). The note with it: 2-4 oilseed rape-leaf stage. As for the experimental part: The trials were carried out under greenhouse conditions (test pots, diameter 8 cm, spray application using 300 l of water/hectare, 2 repetitions, 6 to 8 plants per pot).
Scoring was by visual comparison of the treated with the untreated controls (0-100% scale, 14-19 days after the application) (see details in the respective tables).

Data set [2] deals with Viola arvensis. Put plainly: Greenhouse trial, post-emergence herbicidal efficacy against Viola arvensis. The note with it: scoring 14 days after application, g of ai/ha: A1.1 100, B1.1 5, C1 25, C2 100, C3 12.5, C4 2.5, C5 50, C6 125, C7 250, C8 250, C9 5, combinations at the same rates. As for the experimental part: (§1) The trials were carried out under greenhouse conditions (test pots, diameter 8 cm, spray application using 300 l of water/hectare, 2 repetitions, 6 to 8 plants per pot). Application was by post-emergence treatment; the species of the harmful plants and their stage of growth at the time of treatment are, indicated in the individual results tables. The application rates of the herbicidally active compounds used on their own or in combinations are likewise listed in the individual results tables.
Scoring was by visual comparison of the treated with the untreated controls (0-100% scale, 14-19 days after the application) (see details in the respective tables). The results (means for all plants per pot and means of two repetitions per pot and treatment) are lised in Tables 4 to 6 below. […]

The subject of data set [3] is Lolium multiflorum. Put plainly: Greenhouse trial, post-emergence herbicidal efficacy against Lolium multiflorum. The note with it: scoring 14 days after application, g of ai/ha: A1.1 100, B1.1 5, C10 5, C11 15, combinations at the same rates. As for the experimental part: as §1
(§2) Scoring was by visual comparison of the treated with the untreated controls (0-100% scale, 14-19 days after the application) (see details in the respective tables). The results (means for all plants per pot and means of two repetitions per pot and treatment) are lised in Tables 4 to 6 below.
(§3) 4.2 Abbreviations Used in Tables 4 to 6 • application rate g/ai=application rate in grams of active compound per hectare • ai=active ingredient (of an active compound content of 100%) • GA=glufosinate-ammonium • GA-tolerant=oilseed rape which is tolerant to GA (GMO) • E^C=expected value according to Colby, (E^C=A+B−A×B/100)=for ternary combinations: (A+B)+C−(A+B)×C/100 • E^A=expected value according to the addition method (E^A=A+B) • A=difference (%) between observed value−%−vs. expected value (%) (observed value minus expected value) • examination:—observed values for (A), (B) and (A)+(B) in % • scoring:—observed value (%) greater >than E^C/E^A: ->synergism (+Δ) • observed value (%) equal to =E^c/E^A->additive effect (+−0Δ) • observed value (%) smaller <than E^A/E^c->antagonism (−Δ)

Data set [4] has as its system Matricaria chamomilla. In words: Greenhouse trial, post-emergence herbicidal efficacy against Matricaria chamomilla. The note with it: scoring 19 days after application, g of ai/ha: A1.1 100, B1.1 5, C12 50, combinations at the same rates. As for the experimental part: as §1, §2, §3
Where [5] appears, read: Table 4, post-emergence, scoring 14 days after application, g of ai/ha: A1.1 100, B1.1 5, C1 25, C2 100, C3 12.5, C4 2.5, C5 50, C6 125, C7 250, C8 250, C9 5, combinations at the same rates, (75)* = selective only in IMI × GA tolerant crop plants.
The mark [6] stands for this setting: Table 5, post-emergence, scoring 14 days after application, g of ai/ha: A1.1 100, B1.1 5, C10 5, C11 15, combinations at the same rates.
Setting [7] is: Table 6, post-emergence, scoring 19 days after application, g of ai/ha: A1.1 100, B1.1 5, C12 50, combinations at the same rates.

This note sets out measurements from patent US20110287933A1, “Herbicidal composition for tolerant or resistant oilseed rape crops” (BAYER CROPSCIENCE AG, priority 2010, published 2011).

As for `O=C(O)c1nc(Cl)ccc1Cl` [C1, clopyralid], the “Damage to crop plants (%) oilseed rape (GA-tolerant) (≦15-20% acceptable)” value (“Damage to crop plants (%) oilseed rape” below) in data set [1] (setting [5]) is on record as 0%.
Consider `CCOC(=O)[C@@H](C)Oc1ccc(Oc2nc3ccc(Cl)cc3o2)cc1` [C3, fenoxaprop-P-ethyl], for which, in data set [1] (setting [5]), the “Damage to crop plants (%) oilseed rape” value is on record as 15%. For the same compound, in data set [2], the “Herbicidal efficacy % Viola arvensis” value is on record as 0%.
As for `CCSC(C)CC1CC(=O)C(/C(CC)=N/OC/C=C/Cl)=C(O)C1` (centres unmarked) [C10, clethodim], in data set [1] (setting [6]), the “Damage to crop plants (%) oilseed rape” value is reported as 0%. The “Herbicidal efficacy % Lolium multiflorum” value in data set [3] was determined as 50%.
As to `CCCCCCCCSC(=O)Oc1cc(Cl)nnc1-c1ccccc1` [C7, pyridate], in data set [1] (setting [5]), the “Damage to crop plants (%) oilseed rape” value is on record as 0%.
For `CC1(C)CON(Cc2ccccc2Cl)C1=O` [C12, Clomazone], in data set [1] (setting [7]), the “Damage to crop plants (%) oilseed rape” value was determined as 15%. Moreover, the “Herbicidal efficacy % Matricaria chamomilla” value in data set [4] is 0%.
For the compound `COC(=O)c1nc(-c2ccc(Cl)c(OC)c2F)cc(N)c1Cl` [B1.1, methyl 4-amino-3-chloro-6-(4-chloro-2-fluoro-3-methoxyphenyl)pyridine-2-carboxylate], the “Herbicidal efficacy % Lolium multiflorum” value in data set [3] is recorded as 0%. In addition, in data set [4], the “Herbicidal efficacy % Matricaria chamomilla” value was determined as 40%.
For the compound `Cc1cccc(C)c1N(Cn1cccn1)C(=O)CCl` [C5, metazachlor], the “Damage to crop plants (%) oilseed rape” value in data set [1] (setting [5]) is 0%.
With `CCCN(CCC)c1c([N+](=O)[O-])cc(C(F)(F)F)cc1[N+](=O)[O-]` [C8, trifluralin], the “Damage to crop plants (%) oilseed rape” value in data set [1] (setting [5]) stood at 0%.
For the compound `CP(=O)(O)CCC(N)C(=O)O` (centres unmarked) [A1.1, glufosinate-ammonium], the “Damage to crop plants (%) oilseed rape” value in data set [1] (setting [5]), in data set [1] (setting [6]) and in data set [1] (setting [7]) was 10% throughout. Further, in data set [3], the “Herbicidal efficacy % Lolium multiflorum” value turned out to be 20%. In addition, in data set [4], the “Herbicidal efficacy % Matricaria chamomilla” value was 95%.
As for `C[C@@H](Oc1ccc(Oc2ncc(C(F)(F)F)cc2Cl)cc1)C(=O)O` [C4, haloxyfop-p], in data set [2], the “Herbicidal efficacy % Viola arvensis” value worked out at 0%.
As to `CCCC(=NOCC)C1=C(O)CC(C2CCCSC2)CC1=O` (centres unmarked) [C11, cycloxydim], the “Herbicidal efficacy % Lolium multiflorum” value in data set [3] stood at 70%.
`COCc1cnc(C2=NC(C)(C(C)C)C(=O)N2)c(C(=O)O)c1` (centres unmarked) [C9, imazamox]: the “Damage to crop plants (%) oilseed rape” value in data set [1] (setting [5]) is “(75)* %”.
